In ChEMBL document CHEMBL1201862, “PubChem BioAssay data set” (2004):
The source made the active and inactive calls.

Experiments:
[1] = biological target: T1, Delta-type opioid receptor (Homo sapiens, UniProt P41143); assay: DOR antagonists, SAR follow-up, image-based (AID 2357); type: functional
[2] = biological target: T1, Delta-type opioid receptor; assay: DOR agonists, SAR follow-up, image-based (AID 2370); type: functional
Mu-type opioid receptor [3] = biological target: T2, Mu-type opioid receptor (Homo sapiens, UniProt P35372); assay: MOR agonists by imaging, SAR follow-up, image-based (AID 2352); type: functional
[4] = biological target: T3, Kappa-type opioid receptor (Homo sapiens, UniProt P41145); assay: KOR antagonists by imaging, SAR follow-up, image-based (AID 2348); type: functional
[5] = biological target: T3, Kappa-type opioid receptor; assay: KOR agonist analogs, imaging readout, SAR follow-up, image-based (AID 2359); type: functional
[6] = biological target: T3, Kappa-type opioid receptor; assay: kappa opioid receptor blockers, cell-based, luminescence, beta-arrestin, SAR follow-up (AID 2285); type: functional
Mu-type opioid receptor [7] = biological target: T2, Mu-type opioid receptor; assay: MOR antagonists, SAR follow-up, image-based (AID 2420); type: functional;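 further: compounds added before stimulation of receptor with agonist DAMGO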
HEK293 [8] = assay: SAR Analysis of small molecule inhibitors of B-cell specific antigen receptor-induced NF-kB activation in a HEK-293T cell line using a luminescence assay - Set 2. [Related pubchem assays (depositor defined):AID435022, AID435025, AID489021]; type: functional, cell-based; conditions: Homo sapiens
HEK293 [9] = assay: cytotoxicity in HEK293T NF-kB-Luc cells, SAR follow-up, cytotoxicity control for NF-kB activator project, cell-based, resazurin fluorescence (AID 493251); type: functional; conditions: Homo sapiens
Jurkat = assay: SAR Analysis of small molecule inhibitors of […] specific antigen receptor-induced NF-kB activation in a Jurkat cell line using a luminescence assay - Set 3. [Related pubchem assays (depositor defined):AID435022, AID435025, AID465]; type: functional, cell-based; conditions: Homo sapiens
[10] = system: Streptococcus sp. 'group A'; assay: growth inhibition of control SK(-) GAS strain, dose response, counter-screen for streptokinase expression inhibitor project, luminescence, kanamycin, BacTiterGlo, confirmation (AID 1900); type: functional, organism-based
[11] = biological target: T4, Probable nicotinate-nucleotide adenylyltransferase (Staphylococcus aureus (strain N315), UniProt P65502); type: functional, Staphylococcus aureus subsp. aureus N315; conditions: read-out: IC50_Mean;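 on IC50 Mean: confirmatory dose-response retesting of NadD inhibitor hits first found in an ultra-high-throughput screen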
ORF 73 = ORF 73 (Human herpesvirus 8, UniProt O40947); assay: inhibitors of C-LANA binding to LBS DNA, dose response, biochemical, fluorescence polarization, cherry-picked samples (AID 504725); design: species or system Human gammaherpesvirus 8;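 further: fluorescence polarization of a labeled DNA duplex reporting LANA DNA binding; potency is for inhibitors that block LANA binding to the DNA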
[12] = biological target: 26S proteasome non-ATPase regulatory subunit 14 (Homo sapiens, UniProt O00487); assay: inhibition of proteasome subunit RPN11 – biochemical, fluorescence polarization, uHTS hits, confirmation (AID 602368); type: functional
Streptococcus = assay: Group A Streptococcus viability loss, dose response, counter-screen for streptokinase expression inhibitor project, luminescence, BacTiterGlo (AID 1915); type: functional, organism-based;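 further: potency for reduction of bacterial viability or growth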
[13] = biological target: 72 kDa type IV collagenase (Homo sapiens, UniProt P08253); assay: Dose Response validation of uHTS RPN11 inhibitor hits using a MMP-2 Fluorescence assay.; type: functional
Prothrombin = Prothrombin (Bos taurus, UniProt P00735); assay: thrombin inhibition, dose response, biochemical, fluorescence polarization, uHTS hits (AID 602369); type: functional
[14] = biological target: T5, Apoptotic protease-activating factor 1 (Homo sapiens, UniProt O14727); assay: activation of Apaf-1 mediated apoptosis – fluorescent, uHTS hits, dose response (AID 588554); type: functional
T5 sequence (O14727 whole entry): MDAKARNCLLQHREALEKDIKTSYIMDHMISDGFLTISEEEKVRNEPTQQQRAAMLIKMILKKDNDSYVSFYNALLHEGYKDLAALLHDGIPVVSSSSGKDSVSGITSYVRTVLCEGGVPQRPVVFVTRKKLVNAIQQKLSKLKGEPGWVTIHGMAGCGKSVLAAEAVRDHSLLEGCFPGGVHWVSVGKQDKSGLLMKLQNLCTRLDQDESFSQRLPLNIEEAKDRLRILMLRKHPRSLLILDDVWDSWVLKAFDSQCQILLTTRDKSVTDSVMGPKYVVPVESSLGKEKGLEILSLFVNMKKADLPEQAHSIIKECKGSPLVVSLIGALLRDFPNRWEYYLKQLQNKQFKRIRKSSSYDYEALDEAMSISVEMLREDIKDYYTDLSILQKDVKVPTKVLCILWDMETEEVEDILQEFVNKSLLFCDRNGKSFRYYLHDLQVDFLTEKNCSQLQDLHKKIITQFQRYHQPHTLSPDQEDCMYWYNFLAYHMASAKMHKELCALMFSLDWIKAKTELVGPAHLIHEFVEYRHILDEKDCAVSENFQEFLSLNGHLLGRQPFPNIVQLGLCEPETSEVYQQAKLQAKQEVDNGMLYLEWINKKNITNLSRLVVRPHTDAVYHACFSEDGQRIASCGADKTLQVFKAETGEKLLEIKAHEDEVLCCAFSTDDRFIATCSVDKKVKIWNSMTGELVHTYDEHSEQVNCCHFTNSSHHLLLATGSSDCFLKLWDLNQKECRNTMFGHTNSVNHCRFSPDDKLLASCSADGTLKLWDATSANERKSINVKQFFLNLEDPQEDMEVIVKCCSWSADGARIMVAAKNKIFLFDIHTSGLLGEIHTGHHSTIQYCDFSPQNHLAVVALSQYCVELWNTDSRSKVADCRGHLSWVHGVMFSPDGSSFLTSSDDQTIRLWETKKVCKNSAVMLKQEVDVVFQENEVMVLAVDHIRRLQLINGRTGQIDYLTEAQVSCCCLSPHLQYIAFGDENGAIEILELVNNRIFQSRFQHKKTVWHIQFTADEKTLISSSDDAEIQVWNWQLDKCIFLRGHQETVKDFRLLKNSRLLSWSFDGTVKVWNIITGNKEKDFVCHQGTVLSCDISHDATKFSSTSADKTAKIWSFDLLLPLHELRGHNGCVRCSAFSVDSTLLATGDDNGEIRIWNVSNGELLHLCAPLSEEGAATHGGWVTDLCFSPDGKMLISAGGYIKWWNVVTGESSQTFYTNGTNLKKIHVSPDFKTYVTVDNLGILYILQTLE

[15] = biological target: T4, Probable nicotinate-nucleotide adenylyltransferase; type: functional, Staphylococcus aureus subsp. aureus N315
[16] = biological target: Intestinal-type alkaline phosphatase (Mus musculus, UniProt P24822); assay: PubChem AID 488785; type: functional
[17] = biological target: T6, Alkaline phosphatase, tissue-nonspecific isozyme (Homo sapiens, UniProt P05186); assay: TNAP enzyme inhibition by screening hits, dose response, selectivity assay for mouse IAP inhibitor project, biochemical, human TNAP, uHTS hits (AID 488906); type: functional
T6 sequence (P05186 whole entry): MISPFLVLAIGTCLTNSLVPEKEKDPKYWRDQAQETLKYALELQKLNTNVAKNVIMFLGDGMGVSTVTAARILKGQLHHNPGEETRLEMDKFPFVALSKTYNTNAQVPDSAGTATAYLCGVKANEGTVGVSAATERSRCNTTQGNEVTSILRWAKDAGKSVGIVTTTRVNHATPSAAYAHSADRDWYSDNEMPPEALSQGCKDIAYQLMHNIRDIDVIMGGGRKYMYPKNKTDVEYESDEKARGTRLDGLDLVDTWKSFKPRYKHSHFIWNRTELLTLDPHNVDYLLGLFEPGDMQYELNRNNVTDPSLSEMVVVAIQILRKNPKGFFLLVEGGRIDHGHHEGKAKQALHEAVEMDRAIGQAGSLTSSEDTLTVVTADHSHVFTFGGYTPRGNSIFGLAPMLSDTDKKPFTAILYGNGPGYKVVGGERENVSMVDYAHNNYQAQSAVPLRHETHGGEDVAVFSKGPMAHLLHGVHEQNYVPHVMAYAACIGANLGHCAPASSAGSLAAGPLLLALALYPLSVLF

[18] = biological target: Intestinal-type alkaline phosphatase (Homo sapiens, UniProt P09923); assay: inhibition of human intestinal alkaline phosphatase – biochemical, dose response (AID 488876); type: functional
Sequence of Intestinal-type alkaline phosphatase (Homo sapiens, UniProt P09923) (P09923 whole entry): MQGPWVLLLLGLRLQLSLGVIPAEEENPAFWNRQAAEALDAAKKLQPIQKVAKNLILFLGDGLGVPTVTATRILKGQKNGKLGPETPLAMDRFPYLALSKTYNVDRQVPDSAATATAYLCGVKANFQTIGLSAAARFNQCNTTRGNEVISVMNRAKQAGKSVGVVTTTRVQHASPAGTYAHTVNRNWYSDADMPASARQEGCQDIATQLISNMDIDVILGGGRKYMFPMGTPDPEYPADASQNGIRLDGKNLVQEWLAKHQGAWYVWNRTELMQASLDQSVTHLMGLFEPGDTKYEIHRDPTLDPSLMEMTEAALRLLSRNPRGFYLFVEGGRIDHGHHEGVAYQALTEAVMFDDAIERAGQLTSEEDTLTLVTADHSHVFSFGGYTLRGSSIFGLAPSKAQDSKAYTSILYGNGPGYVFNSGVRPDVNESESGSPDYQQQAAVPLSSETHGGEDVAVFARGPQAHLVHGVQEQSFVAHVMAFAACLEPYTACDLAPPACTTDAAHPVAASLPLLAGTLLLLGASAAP

T3 sequence (P41145 whole entry): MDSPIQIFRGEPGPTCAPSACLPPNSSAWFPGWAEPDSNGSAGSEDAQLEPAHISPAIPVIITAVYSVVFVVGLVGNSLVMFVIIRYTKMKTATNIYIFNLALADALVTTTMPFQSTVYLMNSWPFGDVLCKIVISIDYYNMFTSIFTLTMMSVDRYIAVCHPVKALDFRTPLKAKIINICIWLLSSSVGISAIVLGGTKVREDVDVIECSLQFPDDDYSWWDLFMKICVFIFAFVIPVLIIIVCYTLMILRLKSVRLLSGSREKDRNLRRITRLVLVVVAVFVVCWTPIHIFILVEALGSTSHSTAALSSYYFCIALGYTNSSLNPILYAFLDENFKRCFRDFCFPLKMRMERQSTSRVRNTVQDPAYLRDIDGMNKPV
T1 sequence (P41143 whole entry): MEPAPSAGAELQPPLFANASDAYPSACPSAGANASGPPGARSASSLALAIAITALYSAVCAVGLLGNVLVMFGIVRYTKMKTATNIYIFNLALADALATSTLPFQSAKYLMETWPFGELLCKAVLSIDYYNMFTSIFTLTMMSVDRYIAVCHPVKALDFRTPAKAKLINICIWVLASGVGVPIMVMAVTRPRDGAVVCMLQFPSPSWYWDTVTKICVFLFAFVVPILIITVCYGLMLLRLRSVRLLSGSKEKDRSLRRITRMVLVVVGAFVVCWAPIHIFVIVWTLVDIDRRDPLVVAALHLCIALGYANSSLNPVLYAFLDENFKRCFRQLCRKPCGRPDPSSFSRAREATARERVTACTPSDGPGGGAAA
T4 sequence (P65502 whole entry): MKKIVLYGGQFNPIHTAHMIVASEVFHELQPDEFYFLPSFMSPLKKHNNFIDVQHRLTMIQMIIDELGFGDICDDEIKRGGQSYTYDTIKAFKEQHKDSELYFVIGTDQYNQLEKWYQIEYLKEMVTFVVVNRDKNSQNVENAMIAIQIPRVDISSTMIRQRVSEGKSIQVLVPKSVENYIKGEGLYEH
T2 sequence (P35372 whole entry): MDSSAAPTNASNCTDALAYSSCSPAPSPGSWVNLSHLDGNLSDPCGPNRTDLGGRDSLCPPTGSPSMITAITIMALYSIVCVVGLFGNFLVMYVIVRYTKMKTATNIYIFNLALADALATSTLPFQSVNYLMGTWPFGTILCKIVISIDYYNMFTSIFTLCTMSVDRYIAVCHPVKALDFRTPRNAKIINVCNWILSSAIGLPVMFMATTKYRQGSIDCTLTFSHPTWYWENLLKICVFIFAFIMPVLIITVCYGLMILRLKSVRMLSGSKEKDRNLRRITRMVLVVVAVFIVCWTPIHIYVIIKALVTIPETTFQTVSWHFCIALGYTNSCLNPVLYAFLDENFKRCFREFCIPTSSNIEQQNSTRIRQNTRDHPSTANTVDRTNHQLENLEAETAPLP
Sequence of ORF 73 (O40947 whole entry): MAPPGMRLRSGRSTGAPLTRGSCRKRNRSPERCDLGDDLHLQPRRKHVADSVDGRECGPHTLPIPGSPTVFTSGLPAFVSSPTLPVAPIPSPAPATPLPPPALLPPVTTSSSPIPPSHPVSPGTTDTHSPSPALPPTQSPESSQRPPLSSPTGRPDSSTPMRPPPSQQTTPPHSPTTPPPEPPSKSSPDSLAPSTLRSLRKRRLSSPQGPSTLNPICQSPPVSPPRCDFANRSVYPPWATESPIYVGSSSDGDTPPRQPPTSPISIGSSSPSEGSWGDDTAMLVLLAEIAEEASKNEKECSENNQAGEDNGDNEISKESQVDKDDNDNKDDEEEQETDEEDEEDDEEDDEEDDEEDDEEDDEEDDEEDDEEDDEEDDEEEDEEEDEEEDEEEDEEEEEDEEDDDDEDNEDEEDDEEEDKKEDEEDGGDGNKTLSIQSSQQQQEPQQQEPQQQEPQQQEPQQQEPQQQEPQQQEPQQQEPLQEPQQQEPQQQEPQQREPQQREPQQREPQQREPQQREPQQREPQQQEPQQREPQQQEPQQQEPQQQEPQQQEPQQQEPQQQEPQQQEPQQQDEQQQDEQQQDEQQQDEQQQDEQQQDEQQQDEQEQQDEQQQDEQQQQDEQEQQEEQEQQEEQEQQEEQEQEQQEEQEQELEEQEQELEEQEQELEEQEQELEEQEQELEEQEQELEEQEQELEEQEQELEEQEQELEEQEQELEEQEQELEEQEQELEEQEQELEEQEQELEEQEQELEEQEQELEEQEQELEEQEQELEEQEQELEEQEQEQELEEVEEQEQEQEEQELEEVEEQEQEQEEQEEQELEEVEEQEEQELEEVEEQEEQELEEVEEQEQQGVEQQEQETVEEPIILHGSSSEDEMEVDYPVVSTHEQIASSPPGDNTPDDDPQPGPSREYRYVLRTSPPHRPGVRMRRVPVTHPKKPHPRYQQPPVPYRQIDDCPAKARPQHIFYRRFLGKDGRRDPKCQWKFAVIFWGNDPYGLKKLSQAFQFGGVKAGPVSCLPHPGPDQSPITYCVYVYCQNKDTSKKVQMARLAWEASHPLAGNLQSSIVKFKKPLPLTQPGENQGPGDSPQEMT
Sequence of Intestinal-type alkaline phosphatase (Mus musculus, UniProt P24822) (P24822 whole entry): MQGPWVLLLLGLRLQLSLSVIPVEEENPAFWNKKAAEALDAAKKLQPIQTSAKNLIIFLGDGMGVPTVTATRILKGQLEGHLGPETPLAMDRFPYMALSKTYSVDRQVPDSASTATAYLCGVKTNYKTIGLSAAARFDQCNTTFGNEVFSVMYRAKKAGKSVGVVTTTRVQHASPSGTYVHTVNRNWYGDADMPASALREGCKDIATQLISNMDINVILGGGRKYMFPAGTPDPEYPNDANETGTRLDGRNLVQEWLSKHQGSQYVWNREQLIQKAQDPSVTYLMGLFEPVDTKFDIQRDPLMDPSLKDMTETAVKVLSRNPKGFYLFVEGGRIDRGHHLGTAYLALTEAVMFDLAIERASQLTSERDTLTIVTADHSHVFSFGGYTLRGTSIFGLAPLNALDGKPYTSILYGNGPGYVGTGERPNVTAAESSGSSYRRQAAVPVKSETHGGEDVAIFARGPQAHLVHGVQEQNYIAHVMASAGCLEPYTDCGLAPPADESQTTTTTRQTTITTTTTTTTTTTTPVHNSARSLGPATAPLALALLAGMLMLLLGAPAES
Sequence of 26S proteasome non-ATPase regulatory subunit 14 (O00487 whole entry): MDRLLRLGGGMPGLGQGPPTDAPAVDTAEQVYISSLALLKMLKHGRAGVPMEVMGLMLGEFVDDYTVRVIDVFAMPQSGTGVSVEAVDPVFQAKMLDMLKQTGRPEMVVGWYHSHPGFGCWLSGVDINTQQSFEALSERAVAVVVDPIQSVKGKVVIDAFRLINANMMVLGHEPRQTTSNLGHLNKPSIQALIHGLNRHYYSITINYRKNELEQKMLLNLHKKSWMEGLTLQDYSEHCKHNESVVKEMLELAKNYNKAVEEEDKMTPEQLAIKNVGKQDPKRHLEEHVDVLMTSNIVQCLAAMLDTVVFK
Sequence of 72 kDa type IV collagenase (P08253 whole entry): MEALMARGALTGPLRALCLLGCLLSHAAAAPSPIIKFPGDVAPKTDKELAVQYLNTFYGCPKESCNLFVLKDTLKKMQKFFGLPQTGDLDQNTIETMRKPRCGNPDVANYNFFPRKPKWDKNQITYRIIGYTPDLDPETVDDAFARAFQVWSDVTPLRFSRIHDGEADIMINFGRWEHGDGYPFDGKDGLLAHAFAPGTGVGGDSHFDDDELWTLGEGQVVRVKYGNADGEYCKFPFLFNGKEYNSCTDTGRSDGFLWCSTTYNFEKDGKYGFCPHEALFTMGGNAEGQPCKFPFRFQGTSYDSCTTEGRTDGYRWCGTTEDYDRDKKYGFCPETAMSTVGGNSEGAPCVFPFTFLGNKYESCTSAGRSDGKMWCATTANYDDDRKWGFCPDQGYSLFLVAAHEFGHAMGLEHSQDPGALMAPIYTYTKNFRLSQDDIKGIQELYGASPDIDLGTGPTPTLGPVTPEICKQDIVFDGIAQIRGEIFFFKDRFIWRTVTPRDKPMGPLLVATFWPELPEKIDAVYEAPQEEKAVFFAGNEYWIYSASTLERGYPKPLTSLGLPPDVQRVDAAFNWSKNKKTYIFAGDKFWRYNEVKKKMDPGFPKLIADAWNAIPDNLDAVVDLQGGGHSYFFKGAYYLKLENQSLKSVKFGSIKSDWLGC

COc1ccc(S(=O)(=O)NCc2ccc(C(=O)NCCN(C)Cc3ccccc3)cc2)cc1
IC50 [1]: > 32 µM (inactive)
EC50 [2]: > 32 µM (inactive)
EC50 (Mu-type opioid receptor [3]): > 32 µM (inactive)
IC50 [4]: 24 µM (inactive)
EC50 [5]: > 32 µM (inactive)
IC50 [6]: > 10 µM (inactive)
IC50 (Mu-type opioid receptor [7]): > 32 µM (inactive)

CCCCNC(=O)CSCc1nc(-c2ccc(OCC)cc2)oc1C
IC50 (HEK293 [8]): 38.8 µM (inactive)
IC50 (HEK293 [9]): 75.3 µM (inactive)
IC50 (Jurkat): > 80 µM (inactive)

C=CC1=C(C(=O)O)N2C(=O)[C@@H](NC(=O)/C(=N/OCC(=O)O)c3csc(N)n3)[C@H]2SC1
EC50 [10]: < 0.06 µM (active)
IC50 [11]: 4.25 µM (active)
AC50 (ORF 73): 34.8 µM (active)
IC50 [12]: 1.04 µM (active)
EC50 (Streptococcus): < 0.06 µM (active)
IC50 [13]: 0.0764 µM (active)
IC50 (Prothrombin): 68.6 µM (active)
EC50 [14]: 9.93 µM (active)
IC50 [15]: 0.5 µM (active)

CC(C)(C)c1ccc(O)c(/N=C/c2cc3c(cc2[N+](=O)[O-])OCO3)c1
IC50 [16]: 6.39 µM (active)
IC50 [17]: > 100 µM (inactive)
IC50 [18]: > 100 µM (inactive)
